This is an account of results in patent US9682990B2, “Alcohol-, diol-, and carbohydrate-substituted indenoisoquinolines as topoisomerase I inhibitors” (Purdue Research Foundation, priority 2011, dated 2017).

Each structure is given as a SMILES string. Read-outs that look alike come from different tables or passages of the source.

Series [1] deals with all human cancer cell lines successfully tested. In words: NCI-60 cell line assay, mean-graph midpoint. It is filed as cell-based. The following applies: for GI50: read-out: MGM GI50; for MGM (mean graph midpoint for growth inhibition): all human cancer cell lines tested, 10^−8 to 10^−4 molar. As for the experimental part: Biological Results. The indenoisoquinoline analogues were tested for antiproliferative activity in the National Cancer Institute's Developmental Therapeutics Assay against cell lines derived from approximately 60 different human tumors. […] The cytotoxicities of the compounds to cultured cancer cells were measured in the National Cancer Institute's 60 cell line assay (a.k.a. NCI-60).

For series [2], the target named is Tyrosyl-DNA phosphodiesterase 1 (TDP1) (Homo sapiens, UniProt Q9NUW8). In words: TDP1 inhibition. The following applies: scores correspond to IC50 ranges. It is filed as biochemical. The source says: Tyrosyl-DNA phosphodiesterase 1 (TDP1) is a DNA repair enzyme that repairs cytotoxic DNA damage induced by Top1 inhibitors.
Sequence of Tyrosyl-DNA phosphodiesterase 1 (TDP1) (Q9NUW8 whole entry, species assumed): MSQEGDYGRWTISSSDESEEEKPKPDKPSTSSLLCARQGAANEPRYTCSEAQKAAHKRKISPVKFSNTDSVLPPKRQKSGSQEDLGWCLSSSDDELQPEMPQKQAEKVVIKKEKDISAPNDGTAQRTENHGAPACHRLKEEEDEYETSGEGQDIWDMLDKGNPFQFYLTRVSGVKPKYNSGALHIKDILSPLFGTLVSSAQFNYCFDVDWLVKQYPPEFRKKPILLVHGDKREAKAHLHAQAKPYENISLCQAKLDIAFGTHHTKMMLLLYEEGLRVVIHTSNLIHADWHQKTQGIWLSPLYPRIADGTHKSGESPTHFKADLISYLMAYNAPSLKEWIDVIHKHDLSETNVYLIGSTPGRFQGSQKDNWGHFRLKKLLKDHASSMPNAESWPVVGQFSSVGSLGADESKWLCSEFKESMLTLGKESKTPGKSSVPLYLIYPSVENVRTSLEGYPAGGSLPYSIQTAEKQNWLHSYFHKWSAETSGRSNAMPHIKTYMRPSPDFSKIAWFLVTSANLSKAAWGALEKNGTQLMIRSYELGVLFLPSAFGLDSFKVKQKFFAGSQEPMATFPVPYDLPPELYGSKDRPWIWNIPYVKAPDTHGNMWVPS
The test system of the next series is HOP-62 (Lung). In words: NCI Developmental Therapeutics antiproliferative assay, HOP-62. It is filed as cell-based, human. As to the method: (§1) Biological Results. The indenoisoquinoline analogues were tested for antiproliferative activity in the National Cancer Institute's Developmental Therapeutics Assay against cell lines derived from approximately 60 different human tumors.

The next series relates to SF-539 (CNS). In words: NCI Developmental Therapeutics antiproliferative assay, SF-539. Format: cell-based, human. As for the experimental part: (§2) Biological Results. The indenoisoquinoline analogues were tested for antiproliferative activity in the National Cancer Institute's Developmental Therapeutics Assay against cell lines derived from approximately 60 different human tumors. […] Results are reported in Table 2 as GI50 values for selected cell lines, and overall antiproliferative potency is quantified as a mean-graph midpoint (MGM).

The subject of a further series is UACC-62 (Melanoma). In words: NCI Developmental Therapeutics antiproliferative assay, UACC-62. Format: cell-based, human. As to the method: as §1
Another series has as its system OVCAR-3 (Ovarian). In words: NCI Developmental Therapeutics antiproliferative assay, OVCAR-3. Format: cell-based, human. As to the method: as §2
The next series relates to SN12C (Renal). In words: NCI Developmental Therapeutics antiproliferative assay, SN12C. Format: cell-based, human. As for the experimental part: as §2
For another series, the system named is DU-145 (Prostate). In words: NCI Developmental Therapeutics antiproliferative assay, DU-145. Format: cell-based, human. As for the experimental part:
as §1

A further series deals with MCF7 (Breast). In words: NCI Developmental Therapeutics antiproliferative assay, MCF7. It is filed as cell-based, human. As to the method:
as §2

The target in a further series is T1, Human recombinant Top1 (Homo sapiens, UniProt P11387).
T1 sequence (P11387 1-765): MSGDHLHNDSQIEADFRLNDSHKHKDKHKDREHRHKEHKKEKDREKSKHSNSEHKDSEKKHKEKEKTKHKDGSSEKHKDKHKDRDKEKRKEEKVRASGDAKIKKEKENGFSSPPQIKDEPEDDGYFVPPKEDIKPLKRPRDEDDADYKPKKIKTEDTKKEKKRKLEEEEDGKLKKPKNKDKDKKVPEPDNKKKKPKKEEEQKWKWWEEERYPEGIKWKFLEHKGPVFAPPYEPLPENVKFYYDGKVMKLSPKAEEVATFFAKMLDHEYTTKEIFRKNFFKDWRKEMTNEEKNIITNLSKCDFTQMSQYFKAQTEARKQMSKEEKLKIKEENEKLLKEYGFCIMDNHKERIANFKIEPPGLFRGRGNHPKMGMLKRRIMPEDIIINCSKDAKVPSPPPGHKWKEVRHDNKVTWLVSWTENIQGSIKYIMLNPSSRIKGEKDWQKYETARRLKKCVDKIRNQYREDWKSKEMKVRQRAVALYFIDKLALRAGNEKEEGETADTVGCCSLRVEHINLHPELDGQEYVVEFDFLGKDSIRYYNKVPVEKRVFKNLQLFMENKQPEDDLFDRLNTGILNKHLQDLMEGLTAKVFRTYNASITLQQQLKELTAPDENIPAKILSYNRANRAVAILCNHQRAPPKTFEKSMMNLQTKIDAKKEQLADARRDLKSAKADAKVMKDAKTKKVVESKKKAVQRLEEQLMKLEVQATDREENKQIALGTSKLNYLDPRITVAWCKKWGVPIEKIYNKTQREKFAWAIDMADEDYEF
In words: Top1-mediated DNA cleavage assay. The following applies: scale relative to 1 μM camptothecin.

In another series the test system is HCT-116 (Colon). In words: NCI Developmental Therapeutics antiproliferative assay, HCT-116. It is filed as cell-based, human. As to the method: as §1
Series [3] deals with cell lines derived from approximately 60 different human tumors. In words: NCI initial one-dose screening assay. It is filed as cell-based. Conditions: percentage of cell growth, one-dose assay at 10 μM.
The mark [4] stands for this setting: Homo sapiens, Table 3, NCI-60, unit inferred.
[5] abbreviates: Homo sapiens, HOP-62, 50% growth inhibition, read-out: Cytotoxicity (GI50) Lung HOP-62.
Setting [6] is: Homo sapiens, SF-539, 50% growth inhibition, read-out: Cytotoxicity (GI50) CNS SF-539.
The mark [7] stands for this setting: Homo sapiens, UACC-62, 50% growth inhibition, read-out: Cytotoxicity (GI50) Melanoma UACC-62.
The mark [8] stands for this setting: Homo sapiens, OVCAR-3, 50% growth inhibition, read-out: Cytotoxicity (GI50) Ovarian OVCAR-3.
Where [9] appears, read: Homo sapiens, SN12C, 50% growth inhibition, read-out: Cytotoxicity (GI50) Renal SN12C.
Where [10] appears, read: Homo sapiens, DU-145, 50% growth inhibition, read-out: Cytotoxicity (GI50) Prostate DU-145.
Setting [11] is: Homo sapiens, MCF7, 50% growth inhibition, read-out: Cytotoxicity (GI50) Breast MCF7.

Description for Human recombinant Top1: Topoisomerase I-Mediated DNA Cleavage Reactions. Human recombinant Top1 was purified from Baculovirus as previously described. […] Unincorporated [32]P-dGTP was removed using mini Quick Spin DNA columns (Roche, Indianapolis, Ind.), and the eluate containing the 3'-end-labeled DNA substrate was collected. […] The reactions were terminated by adding SDS (0.5% final concentration) followed by the addition of two volumes of loading dye (80% formamide, 10 mM sodium hydroxide, 1 mM sodium EDTA, 0.1% xylene cyanol, and 0.1% bromphenol blue). Aliquots of each reaction were subjected to 20% denaturing PAGE. Gels were dried and visualized by using a Phosphoimager and ImageQuant software (Molecular Dynamics).

As for `O=C1c2cc3c(cc2-c2c1c1ccc(F)cc1c(=O)n2C[C@H](O)CO)OCO3`, in series [1] (setting [4]), the GI50 came to 0.105 µM. Further, the IC50 in series [2] is greater than 111 µM.

On to `O=C1c2cc3c(cc2-c2c1c1ccc(F)cc1c(=O)n2C[C@H](O)[C@@H](O)[C@H](O)CO)OCO3`, for which, in series [1] (setting [4]), the GI50 was found to be 0.078 µM. The compound further showed an IC50 in [2] greater than 111 µM.

On to `O=C1c2cc3c(cc2-c2c1c1ccc(Cl)cc1c(=O)n2C[C@H](O)CO)OCO3`, for which the GI50 in [1] (setting [4]) amounted to 0.042 µM. This compound also yielded an IC50 in [2] greater than 111 µM.

In series [2], `O=C1c2cc3c(cc2-c2c1c1ccc(Cl)cc1c(=O)n2C[C@H](O)[C@H](O)[C@H](O)CO)OCO3` had an IC50 greater than 111 µM.

As for `O=C1c2cc3c(cc2-c2c1c1cc(F)c(F)cc1c(=O)n2C[C@H](O)CO)OCO3`, in [1] (setting [4]), the GI50 worked out at 0.068 µM. The 50% inhibitory concentration (IC50) in series [2] is greater than 111 µM.

Take `O=C1c2cc3c(cc2-c2c1c1cc(Cl)c(Cl)cc1c(=O)n2C[C@H](O)CO)OCO3`: the GI50 in [1] (setting [4]) was 0.013 µM. In [2], this compound came in with an IC50 greater than 111 µM.

`O=C1c2ccccc2-c2c1c1ccccc1c(=O)n2C[C@H](O)CO` [Compound 12a, (2′S)-5,6-Dihydro-6-[(2′,3′-dihydroxypropyl)]-5,11-dioxo-11H-indeno[1,2-c]isoquinoline]: the GI50 stood at 5.01 µM in the series on HOP-62 (Lung) (setting [5]); 7.41 µM in the series with SF-539 (CNS) (setting [6]); 5.37 µM in the series on UACC-62 (Melanoma) (setting [7]); 14.5 µM with OVCAR-3 (Ovarian) (setting [8]); 6.92 µM in the series on SN12C (Renal) (setting [9]); 5.75 µM in the series on DU-145 (Prostate) (setting [10]). Moreover, the GI50 with MCF7 (Breast) (setting [11]) was found to be 4.9 µM. In series [1], the “MGM (mean graph midpoint for growth inhibition)” value stood at 8.71 µM. In addition, the Top1 inhibitory activity entry at Human recombinant Top1 is “+++ (+++, between 75% and 95% activity)”.

In turn, `O=C1c2ccccc2-c2c1c1ccccc1c(=O)n2C[C@@H](O)CO` [Compound 12b, (2′R)-5,6-Dihydro-6-[(2′,3′-dihydroxypropyl)]-5,11-dioxo-11H-indeno[1,2-c]isoquinoline] had a melting point of 200 to 205 °C. Also, the GI50 in the series on HOP-62 (Lung) (setting [5]) is 3.79 µM. Also, the GI50 with HCT-116 (Colon) (Homo sapiens, HCT-116, 50% growth inhibition, read-out: Cytotoxicity (GI50) Colon HCT-116) is 4.47 µM. Also, the GI50 with SF-539 (CNS) (setting [6]) worked out at 5.72 µM. Further, the GI50 in the series with UACC-62 (Melanoma) (setting [7]) was 4.36 µM. The GI50 in the series with OVCAR-3 (Ovarian) (setting [8]) came out at 16.1 µM. For the same compound, in the series with SN12C (Renal) (setting [9]), the GI50 came out at 3.77 µM. For the same compound, the GI50 with DU-145 (Prostate) (setting [10]) stood at 2.34 µM. Besides, the GI50 with MCF7 (Breast) (setting [11]) is 3.04 µM. The “MGM (mean graph midpoint for growth inhibition)” value in series [1] was found to be 6.24 ± 0.22 µM.

`C[C@@H](O)Cn1c2c(c3ccccc3c1=O)C(=O)c1ccccc1-2` [Compound 27a, (2′R)-5,6-Dihydro-6-(2′-hydroxypropyl)-5,11-dioxo-11H-indeno[1,2-c]isoquinoline]: the GI50 came out at 3.39 µM in the series with HOP-62 (Lung); 5.52 µM in the series with HCT-116 (Colon); 6.31 µM in the series on SF-539 (CNS); 10.2 µM in the series on UACC-62 (Melanoma); 21.4 µM with OVCAR-3 (Ovarian); 9.33 µM with SN12C (Renal). In addition, the 50% growth inhibitory concentration (GI50) turned out to be 8.32 µM with DU-145 (Prostate) and 3.23 µM in the series with MCF7 (Breast). Besides, the “MGM (mean graph midpoint for growth inhibition)” value in series [1] came to 10.2 µM. Further, the “Growth Percent” value in series [3] is given as 55.23%.

Take `C[C@H](O)Cn1c2c(c3ccccc3c1=O)C(=O)c1ccccc1-2` [Compound 27c, (2′RS)-5,6-Dihydro-6-(2′-hydroxypropyl)-5,11-dioxo-11H-indeno[1,2-c]isoquinoline]: the GI50 is 3.46 µM with HOP-62 (Lung); 5.75 µM in the series on HCT-116 (Colon); 6.76 µM with SF-539 (CNS); 6.16 µM in the series with UACC-62 (Melanoma); 16.2 µM in the series with OVCAR-3 (Ovarian); 3.98 µM with SN12C (Renal). The GI50 with DU-145 (Prostate) came out at 4.36 µM; in the series on MCF7 (Breast), 3.8 µM. Besides, in [1], the “MGM (mean graph midpoint for growth inhibition)” value worked out at 7.9 µM. Further, in series [3], the “Growth Percent” value is given as 50.24%.

`NC[C@H](O)Cn1c2c(c3ccccc3c1=O)C(=O)c1ccccc1-2` [Compound 27d, (2′RS)-5,6-Dihydro-6-(3′-amino-2′-hydroxypropyl)-5,11-dioxo-11H-indeno[1,2-c]isoquinoline]: the GI50 turned out to be 0.276 µM in the series on HOP-62 (Lung); 0.263 µM in the series on HCT-116 (Colon); 0.344 µM in the series with SF-539 (CNS); 0.318 µM in the series on UACC-62 (Melanoma); 1.32 µM with OVCAR-3 (Ovarian); 0.206 µM in the series on SN12C (Renal). Moreover, the GI50 worked out at 0.13 µM in the series with DU-145 (Prostate), 0.198 µM in the series with MCF7 (Breast) and 0.348 µM in [1]. For the same compound, the “MGM (mean graph midpoint for growth inhibition)” value in [1] worked out at 0.348 ± 0.109 µM. Besides, the “Growth Percent” value in [3] is −23.49%.
